Results from a melting point compilation (Tetko et al.; mined from patent text by program, amines drawn as free bases though some values may be those of a salt).

Structure (SMILES) | melting point
O=C1N(c2ccccc2Br)Cc2cnc(Nc3ccccc3)nc2N1CC1CCCCC1 | 200 to 202 °C
CC1CCC(Nc2nccc(Oc3ccc(NC(=O)c4cc(F)cc(N5CCCCC5)c4)c4ccccc34)n2)CC1 (stereo not drawn) | 101 to 102 °C
Cn1nnnc1C(CBr)=C(c1ccc(F)cc1)c1ccc(F)cc1 | 159 to 160 °C
CC(=O)Nc1ccc2c(c1)SC1(CC1)C2=O | 195 to 196 °C
CC(=O)SC(CC(=O)N[C@@H](Cc1ccccc1)C(=O)O)C(=O)c1ccccc1 (stereo partly drawn) | 110 to 112 °C
CCC(=Cc1cn(CC(=O)N(C)CCc2ccccc2)c2ccc(OCc3ccccc3)cc12)C(=O)O | 205 to 207 °C
CON=Cc1sc(-c2ccc(O)cc2C)c(C)c1-c1ccc(O)c(F)c1 | 172 to 177 °C
COc1ccc(-c2nc(C(F)(F)F)[nH]c2-c2ccc(S(C)(=O)=O)cc2)cc1OC | 221 to 224 °C
Cc1csc(C)c1S(N)(=O)=O | 135 °C
Cc1ccccc1-c1ccn(C(C)(C)C(=O)N(C)C)n1 | 78.5 to 81 °C
CCOC(=O)c1cc2cc(OCCCOC)cc(N)c2[nH]1 | 139 to 140 °C
CS(=O)(=O)ON=C(Cl)c1ccc(Cl)c(Cl)c1 | 73 to 75 °C
CNC1([C@@H]2CCN(c3cc(N)c4c(=O)c(C(=O)O)cn([C@@H]5C[C@@H]5F)c4c3C)C2)CC1 | 129 to 131 °C
CC(CCCc1ccc(F)cc1)c1cc(O)c2c(c1)OC(C)(C)C1=C2CN(CC(=O)NC(N)=O)CC1 (stereo not drawn) | 133 to 134 °C
Brc1ccc2nc(COc3ccc(CCCn4ccnc4)cc3)cn2c1 | 103 to 104 °C
O=C(O)c1cn(C2CC2)c2c(F)c(N3CCNCC3)c(F)c(F)c2c1=O | 208 to 213 °C
CCCC[C@@H](C)C[C@@H](CC(=O)OC(C)(C)C)C(=O)O | 142 to 143 °C
C=CCNC(=S)Nc1cc(=N)n2c(n1)SCCC2 | 196 to 197 °C
COC(=O)c1cc([N+](=O)[O-])c(C(F)(F)F)cc1NC(C)=O | 75 to 80 °C
COC(=O)c1ccc2[nH]cc(CCCCN3CCN(c4ccccc4OC)CC3)c2c1 | 195 to 196 °C
Cc1noc(C)c1C(=O)N1CCC2(CC1)CSC1=C(O2)c2ccccc2C(=O)C1=O | 274 to 275 °C
CC(C)(C)OC(=O)N[C@@H](Cc1ccc(O)cc1)C(=O)N[C@H](Cc1ccccc1)C(=O)NCC(=O)OCc1ccccc1 | 169 °C
Cc1cc(C)nc(NC(=O)NS(=O)(=O)c2c(Cl)c(C)nn2C)n1 | 191 to 194 °C

Structure (SMILES) | melting point
CCCn1nc2c(N)nc3ccccc3c2c1CCNC(=O)c1ccc(F)cc1 | 198 to 199 °C
CCOC(=O)CN(CC(=O)OCC)C(=O)C(CCC(=O)O)CS(=O)(=O)c1ccc2ccccc2c1 (stereo not drawn) | 108 to 111 °C
COc1cc2ncnc(N3CCC(O)(CCN4C=CC(C)=NS4(=O)=O)CC3)c2cc1OC | 203 to 204 °C
CC(=O)n1nc(N2CCN(C)CC2)c2ccccc21 | 106 to 108 °C
Cc1cc(C)c2c(c1)N[C@@H](C(=O)O)[C@@H](C)C2=O (relative stereo) | 156 to 157 °C
CCCCCCCCCCCCCCCCC(N)C(O)CO (stereo not drawn) | 92 to 93 °C
CCC(=O)Nc1ccc(-n2cc(CCCOc3c(CC(=O)O)cccc3OC)c(C(C)C)n2)nc1 | 147 to 148 °C
COc1cc2c(cc1-c1cccnc1)-c1c(C3=CCOCC3)c3c(n1CC2)C(=O)N(C(C)(C)C)CCCC3 | 208 to 210 °C
NC(C=Cc1cccc(Cl)c1)=NO | 195 to 197 °C
COc1ccc2c3c([nH]c2c1)C(=S)C(CC1CCN(C(=O)OC(C)(C)C)CC1)C3 (stereo not drawn) | 188 to 189 °C
Cn1cc([N+](=O)[O-])nc1C(Cl)Cl | 153 °C
CN1CCN(c2nc(C(F)(F)F)cs2)CC1 | 62 °C
N#CC(C#N)=C1Sc2nc3cc([N+](=O)[O-])c([N+](=O)[O-])cc3nc2S1 | > 300 °C
CCOC(=O)n1ccc(=O)c2cnc(N3CCN(CC)CC3)nc21 | 161 °C
Cc1ccc(NC(=O)c2nc[nH]c2C)cc1Cl | 215 to 217 °C
CC(C)COC(=O)N1CCC(c2ccc(COc3ccc(S(C)(=O)=O)cc3)nc2)CC1 | 114 to 117 °C
CCC(=O)Nc1ccc(N)c(=O)cc1 | 203 to 205 °C
Cc1nc2c(N)nc3ccccc3c2n1CCOC/C=C/c1ccccc1 | 112 °C
CCC[C@H](Oc1cc(C)c(-n2cc(C(F)(F)F)cn2)c(C)c1)c1ccc(C(=O)NCCC(=O)O)cc1 | 157 to 159 °C
COC(=O)C1(NC(=O)C2(Br)SC=C(Br)C2Br)CCCCCC1 (stereo not drawn) | 165 to 168 °C
CN(C)c1c([N+](=O)[O-])cc(-c2nc(Cl)c(CC#N)n2Cc2ccccc2)cc1[N+](=O)[O-] | 173 to 175 °C
O=C(Nc1ccc(Cl)cc1Cl)c1ccccc1SSc1ccccc1C(=O)Nc1ccc(Cl)cc1Cl | 227 to 228 °C
COC(=O)c1cc2c(N3CCNCC3)cccc2[nH]1 | 177 to 180 °C

Structure (SMILES) | melting point
O=C(c1cc2ccc(F)cc2[nH]1)C12CC3CC(CC(C3)C1)C2 | 242 to 244 °C
CN1CC2Cc3ccc(Cl)cc3C(=O)C2C1 (stereo not drawn) | 148 to 150 °C
CN1CCN(C2CCC(Nc3ncc4ncnc(Nc5ccc(F)c(Cl)c5)c4n3)CC2)CC1 (stereo not drawn) | 194 to 196 °C
CCc1ccccc1NC=C1C(=O)N(c2cccc(C#N)c2)N=C1C | 211 °C
NS(=O)(=O)c1ccc(Br)c(Br)c1 | 169 to 171 °C
CCCCCCCCOC(=O)C=CC(=O)OC(=C1C(=O)N(C(N)=O)c2cc(Cl)c(F)cc21)c1cccs1 | 140 to 148 °C
CCCCCCCCc1ccc(C(=O)NN)cc1 | 90 °C
CS(=O)(=O)NC1CCC(NC(=O)c2ccc(F)cc2)CC1 (stereo not drawn) | 269 to 270 °C
CCOC(=O)c1cn(CC)c2cc(-c3csc(C(C)NC(C)=O)n3)c(F)cc2c1=O (stereo not drawn) | 236 to 238 °C
CC(C)(C)OC(=O)CN(C(=O)CNC(=O)Nc1cccc(-c2nnn[nH]2)c1)c1ccccc1C(=O)c1ccccc1 | 163 to 175 °C
CC(C)(Cc1ccccc1)Nc1c(NCc2cc3cc(C#N)ccc3o2)c(=O)c1=O | 233 to 235 °C
O=[N+]([O-])c1cccc2c1C[C@H]1CSC(=S)N1C2 | 203 °C
CCCCN(CCCC)S(=O)(=O)c1ccc(-n2oc(C)cc2=O)c([N+](=O)[O-])c1 | 84 to 86 °C
Cn1nnnc1CC(=O)c1ccccc1N | 128 to 132 °C
COC(=O)c1ccc(OCCNC(=O)C2Cc3ccccc3N2S(=O)(=O)c2ccc(-c3cccc(C(F)(F)F)c3)cc2)c(C)c1 (stereo not drawn) | 68 to 74 °C
O=C1C(c2cccn2Cc2ccccc2)=CC(=O)c2ncccc21 | 172 to 173 °C
COC(=O)c1ccc(OCCF)cc1 | 77 °C
CC1(C)CCC(C)(C)c2cc(C#CCO)ccc21 | 84 to 85 °C
CCCCCCc1ccc(-c2ccc(C3CCC(C#N)(CCCCCC)CC3)cc2)cc1 (stereo not drawn) | 66 °C
Cc1nnc2n1-c1sc(C#Cc3ccccn3)cc1C(c1ccccc1Cl)=NC2 | 153 to 155 °C
CCCCc1oc2ccc([N+](=O)[O-])cc2c1S(=O)(=O)c1ccc(OCCCBr)cc1 | 101 °C

Results, then the molecule that gave them:

melting point | Structure (SMILES)
205 to 209 °C | O=P(c1ccccc1)(c1ccccc1)C(O)c1c(Cl)cccc1Cl (stereo not drawn)
205 to 206 °C | COc1ccc(CNc2ccc(O)c(C(=O)O)c2)cc1
163 to 164 °C | N[C@H]1CC[C@@H](n2ccc(-c3ccc(F)cc3)c2-c2ccncc2)CC1
170 to 171 °C | FC(F)(F)c1cccc(Nc2nccc(-c3cccnc3)n2)c1
141 to 142 °C | CCOC(=O)c1c(Nc2cc(F)ccc2N)sc2ccccc12
150 °C | Cc1cc(SCc2ccc(OCc3ccccn3)cc2)ccc1OCC(=O)O
191 to 193 °C | O=S(=O)(Cc1n[nH]c(-c2cccs2)n1)c1ccccc1
141 to 142 °C | CCOC(=O)c1c(O)c2cc(Cl)cnc2n(Cc2ccccc2)c1=O
113 °C | CC(=O)c1ccc(OCC(=O)NC2CCN(Cc3ccc(Cl)c(Cl)c3)CC2)cc1
180 °C | COc1ccc(OC)c(C2(OC)C(=O)Nc3ccc(Cl)cc32)c1 (stereo not drawn)
95 to 97 °C | Cc1ccccc1OCC(O)COc1cccc2oc(C(=O)O)cc(=O)c12 (stereo not drawn)
299 to 302 °C | CCC1CC(=O)NN=C1c1ccc2nc(-c3ccncc3)[nH]c2c1 (stereo not drawn)
94 to 96.5 °C | N#Cc1ccccc1N1CCc2ccccc21
180 to 222 °C | OC1CSC(Oc2cccc(-c3cccc(Cl)n3)c2)C(O)C1O (stereo not drawn)
145 to 149 °C | CCCN(C(C)=O)c1cccc(-c2ccc3nnc(C)n3n2)c1
213 to 214 °C | OC1(c2ccc(Cl)cc2)CCN(Cc2c[nH]c3ccccc23)CC1

melting point | Structure (SMILES)
120 to 121 °C | CC(C)OC(=O)c1ccccc1SNc1ccc(OC(F)(F)F)cc1
180 to 181 °C | O=S(=O)(Nc1cccc2c(Cl)c[nH]c12)c1cccc(Cl)c1
126 to 128 °C | CCC(C)N1CCC(CNc2ccc(Cl)cc2C(=O)Nc2ccc(C)cn2)CC1 (stereo not drawn)
236 to 237 °C | Cc1cccc(Nc2nc(-c3cccc(C#N)c3)c(-n3cncn3)s2)n1
225 to 227 °C | Cc1ccc(-c2ccc(S(C)(=O)=O)cc2)n1-c1ccc(-c2ccc[nH]2)cc1
223 to 224 °C | COC(=O)c1ccc2c(c1)C(C(=O)O)c1ccccc1CO2 (stereo not drawn)
169 to 170 °C | Cc1ccccc1NC(=O)CN1CC2CCC(C1)N2S(=O)(=O)c1cccc2nsnc12
150 °C | Cc1cccc(-c2sc(N)nc2-c2ccnc(-c3ccc(OCCN4CCCC4)cc3)c2)n1
47 to 48 °C | CC(O)CCCCCc1ccc(-c2ccccc2)cc1 (stereo not drawn)
131 to 132 °C | COc1cccc(O[C@@H]2COc3ccc(-c4ccc5cc(F)ccc5n4)cc3[C@@H]2O)c1 (relative stereo)
224 °C | O=C(Nc1ccc2ccc(Cl)nc2n1)c1cccc(Br)c1
66 °C | O=C(Cc1ccccc1Nc1c(Cl)cccc1Cl)OCI
247 to 248 °C | CC(C)(C)c1ccc(N2C[C@@H](COc3ccc(C(=O)O)cc3)CC2=O)cc1
190 °C | O=C(C=Cc1ccccc1-c1ccccc1)c1ccccc1
102 to 108 °C | OCC1OC(n2cnc3c(NCCCC(c4ccccc4)c4ccccc4)ncnc32)C(O)C1O (stereo not drawn)
